Measurements from patent US20240024488A1, “COMPOUNDS AND USES THEREOF” (Foghorn Therapeutics Inc., priority 2020, published 2024).

How the values were obtained:
HiBit-BRM fusion protein = biological target: T1, HiBit-BRM fusion protein (Homo sapiens, UniProt P51531); experiment: HiBiT-BRM cell-based degradation assay (Nano-Glo HiBiT Lytic Detection, 24 h); settings: HeLa cell line expressing HiBiT-BRM; for DC50: read-out: BRM HiBit Degradation IC50
T1 construct: expressed in transfected cells
How it was run: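 HeLa cells stably expressing HiBiT-BRM were dosed with compounds (10-point 3-fold dilutions, 30 μM final top dose, duplicate) for 24 h. HiBiT signal was read by lytic LgBiT complementation luminescence. Percent degradation was normalised to DMSO (high control) and 2 μM of a reference BRM/BRG1 degrader (low control).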

[1] = biological target: T2, HiBit-BRG1 fusion protein (Homo sapiens, UniProt P51532); experiment: HiBiT-BRG1 cell-based degradation assay (Nano-Glo HiBiT Lytic Detection, 24 h); settings: HeLa cell line expressing HiBit-BRG1 and LgBit; for Dmax: read-out: BRG1 HiBit Degradation Maximum (%)
T2 construct: expressed in transfected cells
T2 sequence (P51532 whole entry, the tested form may be a part): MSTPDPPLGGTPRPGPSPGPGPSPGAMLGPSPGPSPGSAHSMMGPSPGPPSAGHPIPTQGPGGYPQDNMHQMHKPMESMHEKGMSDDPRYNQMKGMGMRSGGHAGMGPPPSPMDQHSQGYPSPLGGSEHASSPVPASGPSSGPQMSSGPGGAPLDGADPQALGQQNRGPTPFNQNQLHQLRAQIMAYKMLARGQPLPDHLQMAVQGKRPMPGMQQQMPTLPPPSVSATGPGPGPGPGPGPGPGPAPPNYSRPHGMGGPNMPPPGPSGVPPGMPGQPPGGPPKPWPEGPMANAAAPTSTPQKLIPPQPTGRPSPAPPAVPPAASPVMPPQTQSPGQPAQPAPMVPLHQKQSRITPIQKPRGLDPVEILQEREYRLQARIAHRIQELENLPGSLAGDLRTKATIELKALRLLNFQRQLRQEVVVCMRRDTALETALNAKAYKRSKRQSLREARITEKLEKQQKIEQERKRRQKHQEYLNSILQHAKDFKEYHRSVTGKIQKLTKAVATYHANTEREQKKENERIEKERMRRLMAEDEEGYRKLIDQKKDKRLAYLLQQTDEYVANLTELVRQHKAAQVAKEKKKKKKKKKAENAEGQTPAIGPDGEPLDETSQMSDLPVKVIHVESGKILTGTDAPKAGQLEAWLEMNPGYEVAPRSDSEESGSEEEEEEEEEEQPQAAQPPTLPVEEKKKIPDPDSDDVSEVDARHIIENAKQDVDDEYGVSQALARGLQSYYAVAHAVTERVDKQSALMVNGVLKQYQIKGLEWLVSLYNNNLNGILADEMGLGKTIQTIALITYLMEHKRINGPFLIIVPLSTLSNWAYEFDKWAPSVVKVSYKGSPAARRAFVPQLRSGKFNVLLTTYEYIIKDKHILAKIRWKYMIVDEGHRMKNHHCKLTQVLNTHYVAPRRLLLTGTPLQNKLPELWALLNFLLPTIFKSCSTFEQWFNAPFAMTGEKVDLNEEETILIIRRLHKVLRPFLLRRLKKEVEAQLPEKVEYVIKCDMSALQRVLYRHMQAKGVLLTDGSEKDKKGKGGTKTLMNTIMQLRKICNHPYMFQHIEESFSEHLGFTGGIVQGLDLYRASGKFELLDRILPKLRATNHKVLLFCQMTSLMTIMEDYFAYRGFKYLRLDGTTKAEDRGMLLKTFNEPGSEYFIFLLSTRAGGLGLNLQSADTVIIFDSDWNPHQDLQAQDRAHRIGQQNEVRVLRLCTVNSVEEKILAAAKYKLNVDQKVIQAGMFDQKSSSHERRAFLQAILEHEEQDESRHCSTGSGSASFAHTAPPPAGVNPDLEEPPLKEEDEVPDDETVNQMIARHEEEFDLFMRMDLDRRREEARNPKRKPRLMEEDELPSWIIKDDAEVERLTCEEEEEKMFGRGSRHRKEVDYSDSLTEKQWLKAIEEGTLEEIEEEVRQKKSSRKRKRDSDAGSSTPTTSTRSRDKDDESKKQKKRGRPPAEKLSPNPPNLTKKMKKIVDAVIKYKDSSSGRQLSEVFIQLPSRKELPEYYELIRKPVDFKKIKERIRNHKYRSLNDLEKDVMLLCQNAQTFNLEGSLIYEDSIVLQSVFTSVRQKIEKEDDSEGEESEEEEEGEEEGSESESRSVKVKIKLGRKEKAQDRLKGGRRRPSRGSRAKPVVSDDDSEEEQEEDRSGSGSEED
How it was run: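 Stable HeLa line co-expressing HiBit-BRG1 and LgBit, 5000 cells/well, treated 24 h in a tissue culture incubator. Lysed with Nano-Glo HiBiT lytic reagent, luminescence read. % degradation normalized to DMSO (high control) and 2 μM reference BRM/BRG1 degrader (low control).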

T1 sequence (P51531 whole entry, the tested form may be a part): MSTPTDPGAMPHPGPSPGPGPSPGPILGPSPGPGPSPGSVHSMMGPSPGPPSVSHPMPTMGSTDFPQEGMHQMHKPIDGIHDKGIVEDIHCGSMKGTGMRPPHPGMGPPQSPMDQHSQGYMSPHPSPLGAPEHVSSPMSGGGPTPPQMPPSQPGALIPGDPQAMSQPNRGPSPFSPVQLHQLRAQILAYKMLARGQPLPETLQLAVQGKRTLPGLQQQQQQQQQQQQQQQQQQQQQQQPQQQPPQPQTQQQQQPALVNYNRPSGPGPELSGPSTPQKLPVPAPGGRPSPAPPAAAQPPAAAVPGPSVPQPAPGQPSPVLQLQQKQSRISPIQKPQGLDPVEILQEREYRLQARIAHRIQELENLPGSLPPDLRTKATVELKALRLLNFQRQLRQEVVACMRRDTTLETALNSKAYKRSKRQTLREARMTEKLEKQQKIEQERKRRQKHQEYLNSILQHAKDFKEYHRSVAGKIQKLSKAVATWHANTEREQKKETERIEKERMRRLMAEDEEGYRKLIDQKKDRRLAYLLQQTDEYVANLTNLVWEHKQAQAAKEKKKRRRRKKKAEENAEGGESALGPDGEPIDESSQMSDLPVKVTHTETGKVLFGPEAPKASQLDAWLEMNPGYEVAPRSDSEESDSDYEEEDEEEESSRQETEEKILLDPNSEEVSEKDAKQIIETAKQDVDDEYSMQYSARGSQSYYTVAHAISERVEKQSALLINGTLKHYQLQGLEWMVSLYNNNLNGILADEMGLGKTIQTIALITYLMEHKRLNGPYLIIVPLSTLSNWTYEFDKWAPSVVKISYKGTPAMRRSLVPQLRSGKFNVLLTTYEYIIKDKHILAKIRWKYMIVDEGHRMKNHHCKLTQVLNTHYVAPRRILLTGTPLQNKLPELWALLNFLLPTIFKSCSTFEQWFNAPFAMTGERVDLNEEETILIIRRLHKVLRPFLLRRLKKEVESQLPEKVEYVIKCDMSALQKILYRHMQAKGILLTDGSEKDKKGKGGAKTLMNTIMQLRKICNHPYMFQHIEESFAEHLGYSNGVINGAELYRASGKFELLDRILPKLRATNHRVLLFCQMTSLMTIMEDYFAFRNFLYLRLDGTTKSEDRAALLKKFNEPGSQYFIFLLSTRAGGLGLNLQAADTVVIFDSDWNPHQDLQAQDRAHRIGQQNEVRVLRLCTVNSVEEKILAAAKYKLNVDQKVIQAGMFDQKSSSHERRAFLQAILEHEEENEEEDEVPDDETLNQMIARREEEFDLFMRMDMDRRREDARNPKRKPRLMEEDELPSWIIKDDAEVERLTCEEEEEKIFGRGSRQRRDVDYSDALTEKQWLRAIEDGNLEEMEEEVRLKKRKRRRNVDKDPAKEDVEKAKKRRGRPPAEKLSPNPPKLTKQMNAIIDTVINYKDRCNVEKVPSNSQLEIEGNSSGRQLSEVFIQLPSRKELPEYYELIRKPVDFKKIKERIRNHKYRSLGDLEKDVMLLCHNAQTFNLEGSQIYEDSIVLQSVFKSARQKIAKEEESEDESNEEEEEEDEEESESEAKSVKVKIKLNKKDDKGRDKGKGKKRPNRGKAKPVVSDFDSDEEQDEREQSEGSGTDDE

## Cc1ncsc1-c1ccc([C@H](C)NC(=O)[C@@H]2C[C@@H](O)CN2C(=O)[C@@H](c2cc(OCCN3CCCC(c4cc5cc(-c6ccccc6O)nnc5[nH]4)C3)no2)C(C)C)cc1 (mixture of isomers) [Compound 286, (2S,4R)-4-hydroxy-1-((2R)-2-(3-(2-(3-(3-(2-hydroxyphenyl)-7H-pyrrolo[2,3-c]pyridazin-6-yl)piperidin-1-yl)ethoxy)isoxazol-5-yl)-3-methylbutanoyl)-N-((S)-1-(4-(4-methylthiazol-5-yl)phenyl)ethyl)pyrrolidine-2-carboxamide]
HiBit-BRM fusion protein
  BRM HiBit Degradation Maximum (%): A (“A” indicates maximum degradation ≥ 75%)
  DC50: > 10 nM
[1]
  Dmax: < 50%

## Cc1ncsc1-c1ccc([C@H](C)NC(=O)[C@@H]2C[C@@H](O)CN2C(=O)[C@@H](c2cc(OCCN3CC(c4cc5cc(-c6cc(F)cc(Cl)c6O)nnc5[nH]4)C3)no2)C(C)C)cc1 (racemic) [Compound 287, (2S,4R)-1-((R)-2-(3-(2-(3-(3-(3-chloro-5-fluoro-2-hydroxyphenyl)-7H-pyrrolo[2,3-c]pyridazin-6-yl)azetidin-1-yl)ethoxy)isoxazol-5-yl)-3-methylbutanoyl)-4-hydroxy-N-((S)-1-(4-(4-methylthiazol-5-yl)phenyl)ethyl)pyrrolidine-2-carboxamide]
HiBit-BRM fusion protein
  BRM HiBit Degradation Maximum (%): B (“B” indicates maximum degradation ≥ 50%)
  DC50: > 100 nM
[1]
  Dmax: < 50%

## Cc1ncsc1-c1ccc([C@H](C)NC(=O)[C@@H]2C[C@@H](O)CN2C(=O)[C@@H](c2cc(OCCN3CC(c4cc5cc(-c6cc(F)ccc6O)nnc5[nH]4)C3)no2)C(C)C)cc1 (racemic) [Compound 288, (2S,4R)-1-((R)-2-(3-(2-(3-(3-(5-fluoro-2-hydroxyphenyl)-7H-pyrrolo[2,3-c]pyridazin-6-yl)azetidin-1-yl)ethoxy)isoxazol-5-yl)-3-methylbutanoyl)-4-hydroxy-N-((S)-1-(4-(4-methylthiazol-5-yl)phenyl)ethyl)pyrrolidine-2-carboxamide]
HiBit-BRM fusion protein
  BRM HiBit Degradation Maximum (%): A (“A” indicates maximum degradation ≥ 75%)
  DC50: > 100 nM
[1]
  Dmax: < 50%

## Cc1ncsc1-c1ccc([C@H](C)NC(=O)[C@@H]2C[C@@H](O)CN2C(=O)[C@@H](c2cc(OCCN3CC(C(C)(C)c4cc5cc(-c6ccccc6O)nnc5[nH]4)C3)no2)C(C)C)cc1 (racemic) [Compound 289, (2S,4R)-4-hydroxy-1-((R)-2-(3-(2-(3-(2-(3-(2-hydroxyphenyl)-7H-pyrrolo[2,3-c]pyridazin-6-yl)propan-2-yl)azetidin-1-yl)ethoxy)isoxazol-5-yl)-3-methylbutanoyl)-N-((S)-1-(4-(4-methylthiazol-5-yl)phenyl)ethyl)pyrrolidine-2-carboxamide]
HiBit-BRM fusion protein
  BRM HiBit Degradation Maximum (%): A (“A” indicates maximum degradation ≥ 75%)
  DC50: > 10 nM
[1]
  Dmax: < 50%

## Cc1ncsc1-c1ccc([C@H](C)NC(=O)[C@@H]2C[C@@H](O)CN2C(=O)[C@@H](c2cc(OCCN3CCC4(CC3)CC(c3cc5cc(-c6ccccc6O)nnc5[nH]3)C4)no2)C(C)C)cc1 (racemic) [Compound 290, (2S,4R)-4-hydroxy-1-((R)-2-(3-(2-(2-(3-(2-hydroxyphenyl)-7H-pyrrolo[2,3-c]pyridazin-6-yl)-7-azaspiro[3.5]nonan-7-yl)ethoxy)isoxazol-5-yl)-3-methylbutanoyl)-N-((S)-1-(4-(4-methylthiazol-5-yl)phenyl)ethyl)pyrrolidine-2-carboxamide]
HiBit-BRM fusion protein
  BRM HiBit Degradation Maximum (%): A (“A” indicates maximum degradation ≥ 75%)
  DC50: > 10 nM
[1]
  Dmax: > 50%
[1]; read-out: BRMG1 HiBit Degradation IC50
  DC50: > 100 nM
